According to the NIST ThermoML archive (doi:10.1021/je900478c):

Assay: xn = mol fraction of the nth substance listed
Conditions: 101 kPa, Liquid; for viscosity: Capillary tube (Ostwald / Ubbelohde) method

CCCCCCOCCOCCO [2-(2-hexyloxyethoxy)ethanol] + O
mass density [kg/m3]
Conditions | 283.15 K | 288.15 K | 293.15 K | 303.15 K | 313.15 K
x1 = 0.0005 | 999.68 | 999.08 | 998.19 | 995.64 | 992.26
x1 = 0.00075 | 999.67 | 999.06 | 998.17 | 995.59 | 992.23
x1 = 0.001 | 999.66 | 999.07 | 998.17 | 995.58 | 992.18
x1 = 0.00118 | 999.7 | 999.09 | 998.17 | 995.57 | 992.11
x1 = 0.00135 | 999.76 | 999.14 | 998.2 | 995.58 | 992.03
x1 = 0.0015 | 999.84 | 999.17 | 998.16 | 995.51 | 991.94
x1 = 0.00164 | 999.86 | 999.18 | 998.09 | – | –
x1 = 0.00196 | 999.87 | 999.15 | – | – | –
x1 = 0.00225 | 999.88 | 999.08 | – | – | –
x1 = 0.01501 | 995.9 | – | – | – | –
x1 = 0.01996 | 994.71 | – | – | – | –
x1 = 0.02493 | 993.53 | – | – | – | –
x1 = 0.03004 | 992.45 | – | – | – | –
x1 = 0.03536 | 991.13 | – | – | – | –
x1 = 0.03996 | 990.1 | – | – | – | –
x1 = 0.04496 | 989.11 | – | – | – | –
x1 = 0.0501 | 988.12 | 985.54 | – | – | –
x1 = 0.05911 | 986.43 | 983.76 | – | – | –
x1 = 0.06985 | 984.69 | 982.01 | 979.28 | – | –
x1 = 0.07977 | 983.2 | 980.24 | 977.23 | – | –
x1 = 0.08835 | 982.02 | 978.92 | 975.77 | – | –
x1 = 0.09988 | 980.51 | 977.4 | 973.98 | – | –
x1 = 0.1332 | 976.63 | 973.14 | 969.58 | 962.38 | –
x1 = 0.2029 | 970.18 | 966.49 | 962.68 | 955.04 | 947.26
x1 = 0.2856 | 964.36 | 960.42 | 956.52 | 948.66 | 940.71
x1 = 0.3597 | 960.18 | 956.18 | 952.21 | 944.22 | 936.21
x1 = 0.4529 | 955.83 | 951.8 | 947.82 | 939.82 | 931.76
x1 = 0.5426 | 952.4 | 948.39 | 944.4 | 936.42 | 928.33
x1 = 0.6772 | 948.33 | 944.25 | 940.24 | 932.25 | 924.21
x1 = 0.827 | 945.13 | 941.05 | 937.03 | 929.05 | 921.02
x1 = 1 | 942.09 | 938.05 | 934.06 | 926.08 | 918.17

CCCCOCCOCCO [3,6-dioxa-1-decanol] + O
viscosity [mPa·s]
Conditions | x1 = 0.1 | x1 = 0.2 | x1 = 0.2999 | x1 = 0.4 | x1 = 0.5 | x1 = 0.6 | x1 = 0.7 | x1 = 0.7998 | x1 = 0.8999 | x1 = 1
283.15 K | 8.644 | 12.36 | 13.32 | 13.06 | 12.36 | 11.49 | 10.58 | 9.748 | 9.038 | 8.301
293.15 K | 5.684 | 7.986 | 8.637 | 8.55 | 8.183 | 7.708 | 7.203 | 6.727 | 6.309 | 5.86
303.15 K | 3.974 | 5.482 | 5.93 | 5.913 | 5.713 | 5.442 | 5.144 | 4.857 | 4.601 | 4.323
313.15 K | 2.914 | 3.942 | 4.259 | 4.27 | 4.161 | 3.998 | 3.816 | 3.638 | 3.474 | 3.295
323.15 K | 2.216 | 2.943 | 3.173 | 3.195 | 3.133 | 3.033 | 2.918 | 2.804 | 2.697 | 2.58

mass density [kg/m3], Vibrating tube method
Conditions | 283.15 K | 293.15 K | 303.15 K | 313.15 K | 323.15 K
x1 = 0.00199 | 1000.2 | 998.59 | 995.87 | 992.68 | –
x1 = 0.003 | 1000.41 | 998.79 | 996.01 | 992.86 | –
x1 = 0.00498 | 1001.05 | 999.2 | 996.31 | 993.28 | –
x1 = 0.00617 | 1001.43 | 999.48 | 996.53 | 993.43 | –
x1 = 0.00706 | 1001.75 | 999.68 | 996.67 | 993.51 | –
x1 = 0.00794 | 1002 | 999.88 | 996.81 | 993.62 | –
x1 = 0.00892 | 1002.32 | 1000.11 | 996.95 | 993.66 | –
x1 = 0.00993 | 1002.65 | 1000.34 | 997.07 | 993.71 | –
x1 = 0.01492 | 1004.27 | 1001.44 | 997.66 | 993.62 | –
x1 = 0.02056 | 1005.74 | 1002.03 | 997.51 | 993.05 | –
x1 = 0.0238 | 1006.36 | 1002.2 | 997.18 | 992.61 | –
x1 = 0.02697 | 1006.66 | 1002.11 | 997 | 992.19 | –
x1 = 0.03015 | 1006.78 | 1001.94 | 996.61 | 991.64 | –
x1 = 0.03953 | 1006.53 | 1001.04 | 995.23 | 989.79 | –
x1 = 0.06038 | 1005.13 | 998.81 | 992.28 | 986.16 | –
x1 = 0.07987 | 1003.42 | 996.64 | 989.68 | 983.24 | –
x1 = 0.1 | 1001.67 | 994.55 | 987.21 | 979.73 | 971.95
x1 = 0.2 | 992.63 | 984.71 | 976.63 | 968.47 | 960.1
x1 = 0.2999 | 985.44 | 977.27 | 968.97 | 960.58 | 951.9
x1 = 0.4 | 979.51 | 971.27 | 962.91 | 954.51 | 945.89
x1 = 0.5 | 974.9 | 966.63 | 958.27 | 949.82 | 941.29
x1 = 0.6 | 971.46 | 963.17 | 954.74 | 946.32 | 937.75
x1 = 0.7 | 968.77 | 960.45 | 952.05 | 943.62 | 935.03
x1 = 0.7998 | 966.62 | 958.25 | 949.8 | 941.34 | 932.8
x1 = 0.8999 | 964.58 | 956.18 | 947.72 | 939.34 | 930.8
x1 = 1 | 962.57 | 954.16 | 945.74 | 937.35 | 928.85
